How the values were obtained:
Format in all cases: in vivo, patients
[1] = test system: abnormal lid margin features; assay: Lid margin assessment (abnormal lid margin features) in observational patient study
Method: A prospective, uncontrolled, open-label, multi-center observational study was conducted with a total of 72 (53 female, 19 male) patients included, with 1 to 20 patients per site. Two patients were lost for follow-up during the study. Patients to be included had to fulfill following criteria: • Males or females≥18 years of age; • Patients with symptoms as determined by • Tear Film Break-Up Time (TFBUT)≤10 s • Ocular Surface Disease Index≥16 and ≤55 • Schirmer I Test≥2 mm (recorded within 5 min) • Sum of peripheral corneal and conjunctival staining grade≤10 (Oxford) • Altered secretion and expressibility of the meibomian glands.
Among those, patients fulfilling the following criteria were not included in the study: • Known hypersensitivity to any of the components of NovaTears®; • Contact lens wear, pregnancy, or breast feeding; • Presence of dry eye disease (DED) caused by any other known underlying systemic disease; • Planned ophthalmologic surgical procedure during the course of the study; • Use of lipid-containing or tear-film stabilizing eye drops/sprays except cyclosporin formulations.
Patients selected as described above were administered 1-perfluorohexyloctane (F6H8) eye drops, manufactured under the tradename “NovaTears®” (Novaliq GmbH, Heidelberg, Germany) for a period of 7 weeks. Said formulation consists essentially of 1-perfluorohexyloctane (F6H8), it is water-free and contains no additional preservatives or ingredients. A dose of 3 to 4 droplets (corresponding to 40 μl, 10 μl per drop) per eye and day were administered topically to the eye, with 1 droplet being administered as a single dose. NovaTears® single droplets were administered directly to the surface of the eye into a pocket that was formed by gently pulling down the lower eyelid. Assessment of the eyes treated was performed once before the start of NovaTears® administration (baseline) and once after 7 weeks of treatment (follow-up).
Lid Margin Assessment As a further parameter abnormal lid margin features, such as teleangiectasia, plugging and lid swelling were assessed in the study. Assessment was performed for each eye separately.

posterior blepharitis = assay: Assessment of posterior blepharitis severity in observational patient study; conditions: for Posterior blepharitis shift table, changes from baseline for both eyes: 7 weeks
Method: (§1) A prospective, uncontrolled, open-label, multi-center observational study was conducted with a total of 72 (53 female, 19 male) patients included, with 1 to 20 patients per site. Two patients were lost for follow-up during the study. Patients to be included had to fulfill following criteria: • Males or females≥18 years of age; • Patients with symptoms as determined by • Tear Film Break-Up Time (TFBUT)≤10 s • Ocular Surface Disease Index≥16 and ≤55 • Schirmer I Test≥2 mm (recorded within 5 min) • Sum of peripheral corneal and conjunctival staining grade≤10 (Oxford) • Altered secretion and expressibility of the meibomian glands. Among those, patients fulfilling the following criteria were not included in the study: • Known hypersensitivity to any of the components of NovaTears®; • Contact lens wear, pregnancy, or breast feeding; • Presence of dry eye disease (DED) caused by any other known underlying systemic disease; • Planned ophthalmologic surgical procedure during the course of the study; • Use of lipid-containing or tear-film stabilizing eye drops/sprays except cyclosporin formulations. Patients selected as described above were administered 1-perfluorohexyloctane (F6H8) eye drops, manufactured under the tradename “NovaTears®” (Novaliq GmbH, Heidelberg, Germany) for a period of 7 weeks. Said formulation consists essentially of 1-perfluorohexyloctane (F6H8), it is water-free and contains no additional preservatives or ingredients. A dose of 3 to 4 droplets (corresponding to 40 μl, 10 μl per drop) per eye and day were administered topically to the eye, with 1 droplet being administered as a single dose. NovaTears® single droplets were administered directly to the surface of the eye into a pocket that was formed by gently pulling down the lower eyelid. Assessment of the eyes treated was performed once before the start of NovaTears® administration (baseline) and once after 7 weeks of treatment (follow-up). Anterior blepharitis involves inflammation of the lid margin anterior to the gray line and is usually concentrated around the eyelashes and follicles. Posterior blepharitis involves inflammation of the posterior lid margin. The severity of anterior and posterior blepharitis was rated separately for each eye by selecting one of the following ratings: “none”, “+”, “++”, “+++” (with “+++” indicating most severe blepharitis anterior or posterior).

anterior blepharitis = assay: Assessment of anterior blepharitis severity in observational patient study; conditions: for Anterior blepharitis shift table, changes from baseline for both eyes: 7 weeks
Method: as §1

[2] = 7 weeks of treatment, 3 to 4 droplets per eye and day, including patients with scores ++ and +

## CCCCCCCCC(F)(F)C(F)(F)C(F)(F)C(F)(F)C(F)(F)C(F)(F)F [1-perfluorohexyloctane]
[1]; 7 weeks of treatment
  Abnormal lid margin features (teleangiectasia, plugging, lid swelling) after treatment: significantly reduced
[1]; follow-up after 7 weeks of treatment, assessed for each eye separately, baseline 30
  Assessment of lid margin, Lid Swelling: 20
[1]; follow-up after 7 weeks of treatment, assessed for each eye separately, baseline 74
  Assessment of lid margin, Teleangiectasia: 49
[1]; follow-up after 7 weeks of treatment, assessed for each eye separately, baseline 90
  Assessment of lid margin, Plugging: 59
Posterior blepharitis; [2]
  Severity of posterior blepharitis after treatment: decreased for all patients
Posterior blepharitis; baseline 0 (none), follow-up 0 (none)
  Posterior blepharitis shift table, changes from baseline for both eyes: 26 eyes
Posterior blepharitis; baseline 0 (none), follow-up +++
  Posterior blepharitis shift table, changes from baseline for both eyes: 0 eyes
Posterior blepharitis; baseline 0 (none), follow-up ++
  Posterior blepharitis shift table, changes from baseline for both eyes: 0 eyes
Posterior blepharitis; baseline 0 (none), follow-up +
  Posterior blepharitis shift table, changes from baseline for both eyes: 5 eyes
Posterior blepharitis; baseline +++, follow-up 0 (none)
  Posterior blepharitis shift table, changes from baseline for both eyes: 4 eyes
Posterior blepharitis; baseline +++, follow-up +++
  Posterior blepharitis shift table, changes from baseline for both eyes: 0 eyes
Posterior blepharitis; baseline +++, follow-up ++
  Posterior blepharitis shift table, changes from baseline for both eyes: 0 eyes
Posterior blepharitis; baseline +++, follow-up +
  Posterior blepharitis shift table, changes from baseline for both eyes: 2 eyes
Posterior blepharitis; baseline ++, follow-up 0 (none)
  Posterior blepharitis shift table, changes from baseline for both eyes: 10 eyes
Posterior blepharitis; baseline ++, follow-up +++
  Posterior blepharitis shift table, changes from baseline for both eyes: 0 eyes
Posterior blepharitis; baseline ++, follow-up ++
  Posterior blepharitis shift table, changes from baseline for both eyes: 8 eyes
Posterior blepharitis; baseline ++, follow-up +
  Posterior blepharitis shift table, changes from baseline for both eyes: 14 eyes
Posterior blepharitis; baseline +, follow-up 0 (none)
  Posterior blepharitis shift table, changes from baseline for both eyes: 20 eyes
Posterior blepharitis; baseline +, follow-up +++
  Posterior blepharitis shift table, changes from baseline for both eyes: 0 eyes
Posterior blepharitis; baseline +, follow-up ++
  Posterior blepharitis shift table, changes from baseline for both eyes: 3 eyes
Posterior blepharitis; baseline +, follow-up +
  Posterior blepharitis shift table, changes from baseline for both eyes: 30 eyes
Posterior blepharitis; follow-up after 7 weeks of treatment, 122 eyes from 61 patients, baseline 6
  Assessment of posterior blepharitis, grade +++: 0 eyes
Posterior blepharitis; follow-up after 7 weeks of treatment, 122 eyes from 61 patients, baseline 31
  Assessment of posterior blepharitis, grade none: 60 eyes
Posterior blepharitis; follow-up after 7 weeks of treatment, 122 eyes from 61 patients, baseline 32
  Assessment of posterior blepharitis, grade ++: 11 eyes
Posterior blepharitis; follow-up after 7 weeks of treatment, 122 eyes from 61 patients, baseline 53
  Assessment of posterior blepharitis, grade +: 51 eyes
Posterior blepharitis; patients with the most severe posterior blepharitis rated +++
  Reduction in the severity of posterior blepharitis after treatment: most significant reduction
Anterior blepharitis; [2]
  Severity of anterior blepharitis after treatment: decreased for all patients
Anterior blepharitis; baseline +++, follow-up +++
  Anterior blepharitis shift table, changes from baseline for both eyes: 0 eyes
Anterior blepharitis; baseline +++, follow-up ++
  Anterior blepharitis shift table, changes from baseline for both eyes: 0 eyes
Anterior blepharitis; baseline +++, follow-up +
  Anterior blepharitis shift table, changes from baseline for both eyes: 0 eyes
Anterior blepharitis; baseline +++, follow-up none
  Anterior blepharitis shift table, changes from baseline for both eyes: 0 eyes
Anterior blepharitis; baseline ++, follow-up +++
  Anterior blepharitis shift table, changes from baseline for both eyes: 0 eyes
Anterior blepharitis; baseline ++, follow-up ++
  Anterior blepharitis shift table, changes from baseline for both eyes: 4 eyes
Anterior blepharitis; baseline ++, follow-up +
  Anterior blepharitis shift table, changes from baseline for both eyes: 7 eyes
Anterior blepharitis; baseline ++, follow-up none
  Anterior blepharitis shift table, changes from baseline for both eyes: 4 eyes
Anterior blepharitis; baseline +, follow-up +++
  Anterior blepharitis shift table, changes from baseline for both eyes: 0 eyes
Anterior blepharitis; baseline +, follow-up ++
  Anterior blepharitis shift table, changes from baseline for both eyes: 1 eyes
Anterior blepharitis; baseline +, follow-up +
  Anterior blepharitis shift table, changes from baseline for both eyes: 20 eyes
Anterior blepharitis; baseline +, follow-up none
  Anterior blepharitis shift table, changes from baseline for both eyes: 38 eyes
Anterior blepharitis; baseline none, follow-up +++
  Anterior blepharitis shift table, changes from baseline for both eyes: 0 eyes
Anterior blepharitis; baseline none, follow-up ++
  Anterior blepharitis shift table, changes from baseline for both eyes: 2 eyes
Anterior blepharitis; baseline none, follow-up +
  Anterior blepharitis shift table, changes from baseline for both eyes: 15 eyes
Anterior blepharitis; baseline none, follow-up none
  Anterior blepharitis shift table, changes from baseline for both eyes: 31 eyes
Anterior blepharitis; follow-up after 7 weeks of treatment, 122 eyes from 61 patients, baseline 0
  Assessment of anterior blepharitis, grade +++: 0 eyes
Anterior blepharitis; follow-up after 7 weeks of treatment, 122 eyes from 61 patients, baseline 15
  Assessment of anterior blepharitis, grade ++: 7 eyes
Anterior blepharitis; follow-up after 7 weeks of treatment, 122 eyes from 61 patients, baseline 48
  Assessment of anterior blepharitis, grade none: 73 eyes
Anterior blepharitis; follow-up after 7 weeks of treatment, 122 eyes from 61 patients, baseline 59
  Assessment of anterior blepharitis, grade +: 42 eyes

From patent US11684589B2, “Pharmaceutical compositions for use in the therapy of blepharitis” (NOVALIQ GMBH, priority 2016, dated 2023)
